Here are results for nine compounds from US10894798B2, “Substituted dihydropyrrolopyrazole derivative” (UBE INDUSTRIES, LTD., priority 2015, dated 2021).

One assay deals with T1, CDK2 (Homo sapiens, UniProt P24941).
T1 construct: purchased Invitrogen Corp. PV3267
Kind of assay: CDK2 enzyme inhibition test. Format: biochemical. The settings on record: [γ-33P]ATP, MBP substrate; Ki=IC50/(1+S/Km); read-out: Ki value of CDK2 inhibitory activity. As to the method:
(§1) The preparation of a buffer solution was performed by mixing a N-2-hydroxyethylpiperazine-N′-2-ethanesulfonic acid buffer solution (HEPES buffer solution) (pH 7.4), dithiothreitol (DTT), Triton X-100, and magnesium chloride (MgCl2). A 500 μM [γ-^33P]ATP solution was used by diluting a 10 mM ATP solution and a commercially available [γ-^33P]ATP solution (manufactured by Perkin Elmer, Inc., Code No. NEG-302H) with the buffer solution. A CDK2 solution was used by diluting commercially available CDK2 (manufactured by Invitrogen Corp., Catalog No. PV3267) with the buffer solution. A substrate solution was used by diluting myelin basic protein (MBP) with the buffer solution. As for the preparation of a reaction solution, the buffer solution, the 500 μM [γ-^33P]ATP solution, the CDK2 solution, and the substrate solution were mixed at 4° C. to obtain a reaction solution.
(§2) CDK2 enzyme reaction was performed by adding 5 μL of a test compound solution prepared with 10% DMSO/90% injectable distilled water, and 45 μL of the reaction solution in a 1.5 mL microtube at 4° C. and reacting in the microtube at 30° C. for 20 minutes in a water bath incubator. After the reaction, a 10% aqueous trichloroacetic acid (TCA) solution was added to each microtube while cooled to 4° C., and mixed in a vortex mixer to terminate the reaction. The resultant was left standing at 4° C. for 10 minutes and then centrifuged, and the supernatant was discarded. Next, a 2% aqueous trichloroacetic acid (TCA) solution was added thereto, mixed in vortex mixer, and then centrifuged, and the supernatant was discarded. This washing operation was performed twice. After the washing, precipitates were dissolved in a 1 N aqueous sodium hydroxide (NaOH) solution, and the energy quantity (radioactivity) of the reaction product was measured with a liquid scintillation counter.
The calculation of the inhibitory activity of the test compound against CDK2 was performed as a test compound concentration inhibiting 50% of the amount of ^33P bound to MBP (IC50 value) by using EXSUS (version 8.1.0, manufactured by CAC Exicare Corp.).
(§3) The calculation of a Ki value was performed according to the following calculation expression wherein S represents the concentration of ATP contained in the reaction solution, and Km represents a Michaelis-Menten constant: Ki=IC50/(1+S/Km)

The target in another assay is T2, PLK1 (Homo sapiens, UniProt P53350).
T2 construct: purchased Carna Biosciences, Inc. 05-157
Kind of assay: PLK1 enzyme (polo-like kinase) inhibition test. Format: biochemical. The settings on record: [γ-33P]ATP, casein substrate; Ki=IC50/(1+S/Km); read-out: Ki value of PLK1 inhibitory activity. As to the method:
The preparation of a buffer solution was performed by mixing a 3-morpholinopropanesulfonic acid buffer solution (MOPS buffer solution) (pH 7.0), dithiothreitol (DTT), and magnesium acetate (Mg(CH3COO)2). A 1 mM [γ-^33P]ATP solution was used by diluting a 10 mM ATP solution and a commercially available [γ-^33P]ATP solution (manufactured by Perkin Elmer, Inc., Code No. NEG-302H) with the buffer solution. A PLK1 solution was used by diluting commercially available PLK1 (manufactured by Carna Biosciences, Inc., Catalog No. 05-157) with the buffer solution. A substrate solution was used by diluting casein with the buffer solution. As for the preparation of a reaction solution, the buffer solution, the 500 μM [γ-^33P]ATP solution, the PLK1 solution, and the substrate solution were mixed at 4° C. to obtain a reaction solution.
as §2, with “PLK1 enzyme reaction” for “CDK2 enzyme reaction”, “mixed in a vortex mixer,” for “mixed in vortex mixer,”
The calculation of the inhibitory activity of the test compound against PLK1 was performed as a test compound concentration inhibiting 50% of the amount of ^33P bound to casein (IC50 value) by using EXSUS (version 8.1.0, manufactured by CAC Exicare Corp.).
as §3

In a further assay the target is T3, CDK7 (Homo sapiens, UniProt P50613).
T3 construct: purchased Carna Biosciences, Inc. 04-108
Kind of assay: CDK7 enzyme inhibition test. The format is biochemical. The conditions noted are these: [γ-33P]ATP, MBP substrate, 60 min preincubation at 25°C; Ki=IC50/(1+S/Km); read-out: Ki value of CDK7 inhibitory activity. As to the method:
as §1, with “PerkinElmer,” for “Perkin Elmer,”, “CDK7” for “CDK2”, “Carna Biosciences, Inc.,” for “Invitrogen Corp.,”, “04-108)” for “PV3267)”, “CDK7” for “500 μM [γ-^33P]ATP solution, the CDK2”
CDK7 enzyme reaction was performed by adding 5 μL of a test compound solution prepared with 10% DMSO/90% injectable distilled water, and 40 μL of the reaction solution to a 1.5 mL microtube at 4° C. and preincubating the microtube at 25° C. for 60 minutes in a water bath incubator. Subsequently, reaction was performed at 30° C. for 20 minutes by adding 5 μL of the 500 μM [γ-^33P]ATP solution. After the reaction, a 10% aqueous trichloroacetic acid (TCA) solution was added to each microtube while cooled to 4° C., and mixed in a vortex mixer to terminate the reaction. The resultant was left standing at 4° C. for 10 minutes and then centrifuged, and the supernatant was discarded. Next, a 2% aqueous trichloroacetic acid (TCA) solution was added thereto, mixed in a vortex mixer, and then centrifuged, and the supernatant was discarded. This washing operation was performed twice. After the washing, precipitates were dissolved in a 1 N aqueous sodium hydroxide (NaOH) solution, and the energy quantity (radioactivity) of the reaction product was measured with a liquid scintillation counter.
The calculation of the inhibitory activity of the test compound against CDK7 was performed as a test compound concentration inhibiting 50% of the amount of ^33P bound to MBP (IC50 value) by using EXSUS (version 8.1.0, manufactured by CAC Exicare Corp.).
as §3

Assay [1] concerns human large intestine cancer cell line (HCT-116). The assay can be described thus: Human large intestine cancer (HCT-116) cell growth inhibition test. The format is cell-based. The conditions noted are these: HCT-116, 72 h, culture for 3 days, sulforhodamine B, read-out: GI50 value, HCT-116 cell growth inhibition. As to the method: The measurement of a human large intestine cancer cell growth inhibitory effect was carried out by modifying the method of Simak et al. (Cancer Research, 69, 6208 (2009)).
A human large intestine cancer cell line (HCT-116, obtained from DS Pharma Biomedical Co., Ltd.) was cultured in a McCoy's 5A medium (manufactured by Thermo Fisher Scientific, Inc.) containing 10% fetal bovine serum (FBS) (manufactured by Thermo Fisher Scientific, Inc.) and 1% penicillin/streptomycin/amphotericin B (manufactured by Thermo Fisher Scientific, Inc.) and inoculated at 0.5 to 2.0×10^3 cells/well in a 96-well plate. After overnight culture in a carbon dioxide incubator, the medium was replaced with a fresh medium on the next day, and a test compound dissolved in DMSO (final DMSO concentration: 0.1%) was added thereto and left standing in a carbon dioxide incubator. After culture for 3 days, the absorbance thereof was measured by using In Vitro Toxicology Assay Kit Sulforhodamine B based (manufactured by Sigma-Aldrich Co. LLC.).
The rate of inhibition of cell growth at each concentration was calculated from the test compound concentration and the absorbance of sulforhodamine B, and the concentration of the test compound necessary for inhibiting 50% of cell growth (GI50 value) was calculated by using EXSUS (version 8.1.0, manufactured by CAC Exicare Corp.).

T2 sequence (P53350 whole entry): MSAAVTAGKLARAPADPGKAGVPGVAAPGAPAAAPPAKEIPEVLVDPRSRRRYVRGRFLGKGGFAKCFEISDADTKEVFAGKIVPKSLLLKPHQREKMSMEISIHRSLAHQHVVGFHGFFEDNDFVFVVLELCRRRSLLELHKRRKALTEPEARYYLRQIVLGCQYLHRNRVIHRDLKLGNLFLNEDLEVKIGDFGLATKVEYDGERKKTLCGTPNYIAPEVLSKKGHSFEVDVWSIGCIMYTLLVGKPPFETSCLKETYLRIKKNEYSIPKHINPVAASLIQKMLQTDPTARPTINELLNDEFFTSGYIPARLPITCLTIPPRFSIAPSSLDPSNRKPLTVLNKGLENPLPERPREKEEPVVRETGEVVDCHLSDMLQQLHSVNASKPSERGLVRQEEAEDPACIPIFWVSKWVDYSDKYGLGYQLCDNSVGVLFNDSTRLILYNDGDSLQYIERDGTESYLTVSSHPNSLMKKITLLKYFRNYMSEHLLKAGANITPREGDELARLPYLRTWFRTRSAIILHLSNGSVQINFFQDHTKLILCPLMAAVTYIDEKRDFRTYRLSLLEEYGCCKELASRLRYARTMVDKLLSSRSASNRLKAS
T3 sequence (P50613 whole entry): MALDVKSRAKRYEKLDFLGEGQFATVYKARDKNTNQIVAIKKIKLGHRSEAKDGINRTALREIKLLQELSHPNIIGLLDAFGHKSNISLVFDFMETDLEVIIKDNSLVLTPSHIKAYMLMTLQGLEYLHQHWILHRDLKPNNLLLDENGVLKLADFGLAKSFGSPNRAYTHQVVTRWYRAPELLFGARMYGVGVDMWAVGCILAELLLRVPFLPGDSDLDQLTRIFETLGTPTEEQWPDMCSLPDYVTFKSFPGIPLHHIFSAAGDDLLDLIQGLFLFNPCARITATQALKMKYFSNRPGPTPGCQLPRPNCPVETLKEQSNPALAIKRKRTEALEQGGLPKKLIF
T3 sequence (P51946 whole entry partner): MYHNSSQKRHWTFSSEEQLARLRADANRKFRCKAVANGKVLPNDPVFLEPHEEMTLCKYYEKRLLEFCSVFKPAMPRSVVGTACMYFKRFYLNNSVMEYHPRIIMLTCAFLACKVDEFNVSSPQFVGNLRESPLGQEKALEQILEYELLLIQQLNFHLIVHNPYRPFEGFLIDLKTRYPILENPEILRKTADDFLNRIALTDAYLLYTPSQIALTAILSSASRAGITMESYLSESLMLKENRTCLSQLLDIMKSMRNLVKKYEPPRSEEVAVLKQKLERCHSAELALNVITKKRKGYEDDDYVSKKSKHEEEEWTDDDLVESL
T3 sequence (P51948 whole entry partner): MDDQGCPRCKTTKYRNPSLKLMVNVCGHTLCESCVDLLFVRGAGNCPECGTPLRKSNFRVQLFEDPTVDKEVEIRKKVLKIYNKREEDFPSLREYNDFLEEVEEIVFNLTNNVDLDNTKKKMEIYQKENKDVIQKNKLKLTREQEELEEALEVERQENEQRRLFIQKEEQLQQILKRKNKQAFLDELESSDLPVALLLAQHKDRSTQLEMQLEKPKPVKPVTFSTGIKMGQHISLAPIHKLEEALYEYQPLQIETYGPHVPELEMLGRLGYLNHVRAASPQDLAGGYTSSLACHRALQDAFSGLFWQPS

Broadly, the Ki is the equilibrium dissociation constant of an inhibitor or competing ligand from its target. With `CC1(C)c2[nH]nc(NC(=O)C3([Si](C)(C)C)CCC3)c2CN1C(=O)N1CCc2ccccc21` [I-1000, N-[5-(Indoline-1-carbonyl)-6,6-dimethyl-1,4,5,6-tetrahydropyrrolo[3,4-c]pyrazol-3-yl]-1-(trimethylsilyl)cyclobutanecarboxamide], the Ki at CDK2 is at least 1 µM; at PLK1 it was at least 5 µM.

In the case of `CC1(C)c2[nH]nc(NC(=O)C3([Si](C)(C)C)CCC3)c2CN1C(=O)N1CCOc2ccccc21` [I-1036, N-[5-(3,4-Dihydro-2H-benz[b][1,4]oxazine-4-carbonyl)-6,6-dimethyl-1,4,5,6-tetrahydropyrrolo[3,4-c]pyrazol-3-yl]-1-(trimethylsilyl)cyclobutanecarboxamide], the Ki is at least 1 µM at CDK2 and at least 5 µM at PLK1.

By GI50 is commonly meant the concentration at which growth is held to half of that of the control. On to `CCc1cccc(F)c1NC(=O)N1Cc2c(NC(=O)C(C)(C)[Si](C)(C)C)n[nH]c2C1(C)C` [II-137, N-(2-Ethyl-6-fluorophenyl)-6,6-dimethyl-3-[2-methyl-2-(trimethylsilyl)propanamido]-4,6-dihydropyrrolo[3,4-c]pyrazole-5(1H)-carboxamide], for which the Ki is at most 0.05 µM at CDK7, at least 1 µM on CDK2 and at least 5 µM at PLK1. Further, the GI50 in assay [1] is at most 0.1 µM.

Turning to `CC1(C)c2[nH]nc(NC(=O)C(C)(C)[Si](C)(C)C)c2CN1C(=O)Nc1c(F)cccc1OC(F)F` [II-169, N-[2-(Difluoromethoxy)-6-fluorophenyl]-6,6-dimethyl-3-[2-methyl-2-(trimethylsilyl)propanamido]-4,6-dihydropyrrolo[3,4-c]pyrazole-5(1H)-carboxamide], the Ki was at most 0.05 µM at CDK7, at least 1 µM at CDK2 and at least 5 µM at PLK1. In assay [1], the GI50 was at most 0.1 µM.

For the compound `CC1(C)c2[nH]nc(NC(=O)C(C)(C)[Si](C)(C)C)c2CN1C(=O)Nc1c(Cl)cccc1Cl` [II-199, N-(2,6-Dichlorophenyl)-6,6-dimethyl-3-[2-methyl-2-(trimethylsilyl)propanamido]-4,6-dihydropyrrolo[3,4-c]pyrazole-5(1H)-carboxamide], the inhibitory constant (Ki) is at most 0.05 µM at CDK7, at least 1 µM on CDK2 and at least 5 µM on PLK1. Moreover, in assay [1], the GI50 was at most 0.1 µM.

As for `CC1(C)c2[nH]nc(NC(=O)C(C)(C)[Si](C)(C)C)c2CN1C(=O)Nc1c(F)ccc2ccoc12` [II-1049, N-(6-Fluorobenzofuran-7-yl)-6,6-dimethyl-3-[2-methyl-2-(trimethylsilyl)propanamido]-4,6-dihydropyrrolo[3,4-c]pyrazole-5(1H)-carboxamide], the Ki on CDK7 is at most 0.05 µM; at CDK2, at least 1 µM; at PLK1, at least 5 µM. Besides, the GI50 in assay [1] is at most 0.1 µM.

For `CCc1cccc(F)c1NC(=O)N1Cc2c(NC(=O)C3([Si](C)(C)C)CC3)n[nH]c2C1(C)C` [III-137, N-(2-Ethyl-6-fluorophenyl)-6,6-dimethyl-3-[1-(trimethylsilyl)cyclopropanecarboxamido]-4,6-dihydropyrrolo[3,4-c]pyrazole-5 (1H)-carboxamide], the results for the Ki on CDK7, at CDK2 and at PLK1 were at most 0.05 µM, at least 1 µM and at least 5 µM, respectively. In addition, the GI50 in assay [1] was at most 0.1 µM.

For the compound `CC1(C)c2[nH]nc(NC(=O)C3([Si](C)(C)C)CC3)c2CN1C(=O)Nc1c(F)cccc1OC(F)F` [III-169, N-[2-(Difluoromethoxy)-6-fluorophenyl]-6,6-dimethyl-3-[1-(trimethylsilyl)cyclopropanecarboxamido]-4,6-dihydropyrrolo[3,4-c]pyrazole-5(1H)-carboxamide], the figures for the Ki on CDK7, on CDK2 and at PLK1 were at most 0.05 µM, at least 1 µM and at least 5 µM, respectively. In addition, the GI50 in assay [1] was at most 0.1 µM.

Take `CC1(C)c2[nH]nc(NC(=O)C3([Si](C)(C)C)CC3)c2CN1C(=O)Nc1c(Cl)cccc1Cl` [III-199, N-(2,6-Dichlorophenyl)-6,6-dimethyl-3-[1-(trimethylsilyl)cyclopropanecarboxamido]-4,6-dihydropyrrolo[3,4-c]pyrazole-5(1H)-carboxamide]: the Ki was at most 0.05 µM on CDK7, at least 1 µM at CDK2 and at least 5 µM on PLK1. The GI50 in assay [1] was at most 0.1 µM.
